From patent publication EP4656642A1, “ESTROGEN RECEPTOR PROTEOLYSIS TARGETING CHIMERA COMPOUND AND USE THEREOF” (GAN & LEE PHARM CO., LTD, priority 2023, dated 2024)

Assays:
Assay type in all cases: cell-based
MCF-7 cells = experiment: Inhibition of cell proliferation of MCF-7 cells (CCK-8, 9 days)
Method in brief: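 Read-out was CCK-8 viability after 9-day continuous exposure (37°C, 5% CO2) of MCF-7 cells plated at 800/well in 10% FBS DMEM across several compound concentrations. Values are proliferation IC50s.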

T-47D cells = experiment: Inhibition of cell proliferation in T-47D cells (CCK-8, 6 days); settings: 6 days of treatment
Method in brief: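 Viability read-out was CCK-8 after 6 days of compound treatment (37 °C, 5% CO2) across graded concentrations. Cells were T-47D seeded at 3,000 per well in 1640 medium plus 10% FBS. IC50 was calculated against proliferation.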

ERα [1] = target: T1, ERα (Homo sapiens, UniProt P03372); experiment: Degradation of ERα in MCF-7 cells (immunoblotting, 4 h)
T1 sequence (P03372 1-595): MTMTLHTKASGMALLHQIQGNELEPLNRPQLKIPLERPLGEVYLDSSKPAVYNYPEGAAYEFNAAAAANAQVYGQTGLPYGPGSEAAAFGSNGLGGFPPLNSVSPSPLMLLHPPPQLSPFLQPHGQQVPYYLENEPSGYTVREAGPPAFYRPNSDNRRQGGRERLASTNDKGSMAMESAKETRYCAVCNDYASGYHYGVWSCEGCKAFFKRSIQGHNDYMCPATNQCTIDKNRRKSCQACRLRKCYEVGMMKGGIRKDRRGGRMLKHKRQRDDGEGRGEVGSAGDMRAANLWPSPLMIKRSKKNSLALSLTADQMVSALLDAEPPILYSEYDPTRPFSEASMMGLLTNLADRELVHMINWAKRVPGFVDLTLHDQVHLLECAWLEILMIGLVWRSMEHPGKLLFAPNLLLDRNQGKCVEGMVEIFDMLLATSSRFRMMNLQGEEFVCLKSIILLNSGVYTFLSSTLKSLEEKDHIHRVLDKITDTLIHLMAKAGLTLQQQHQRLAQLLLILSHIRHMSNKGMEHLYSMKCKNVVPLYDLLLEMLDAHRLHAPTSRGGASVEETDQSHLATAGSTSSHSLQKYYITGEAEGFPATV
Method in brief: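 Degradation rate reflects ERα band intensity, corrected to an internal reference protein, relative to control. Values come from Western blotting of lysates from MCF-7 cells exposed 4 h at 37°C to compounds at final concentrations of 0.15-1000nM.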

ERα [2] = target: T1, ERα; experiment: Degradation of ERα in T-47D cells (immunoblotting, 4 h); parameters: host or cells: T-47D
Method in brief: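 ERα protein levels were assessed by immunoblot of RIPA lysates (with protease inhibitor) after 4 h exposure at 37°C. Compound was added in DMSO to T-47D cells at final concentrations of 0.15-1000 nM.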

[3] = treated for 9 days, CCK-8 kit (Table 6)

Compound | IC50 (MCF-7 cells; [3]) | IC50 (T-47D cells; Table 3) | Degradation rate (%) of ERα in MCF-7 cells (ERα [1]; 1nM compound) | Degradation rate (%) of ERα in MCF-7 cells (ERα [1]; 10nM compound) | Degradation rate (%) of ERα in T-47D cells (ERα [2]; 1nM compound) | Degradation rate (%) of ERα in T-47D cells (ERα [2]; 10nM compound) | IC50 (MCF-7 cells; 9 days of treatment, CCK-8, Table 5) | IC50 (T-47D cells; Table 2)
O=C1CCC(N2Cc3c(ccc4c3OCC43CCN(C(=O)c4ccc(CN5CCN(c6ccc([C@@H]7c8ccc(O)cc8CC[C@@H]7c7ccccc7)cc6)CC5)cn4)CC3)C2=O)C(=O)N1 (some centres unmarked) [B41] | 29200 nM | 0.75 nM | 59% | 53% | 66% | 74% |  | 
O=C1CCC(N2C(=O)c3cc4c(cc3C2=O)C2(CCN(C3CCC5(CC3)CCN(c3ccc(C6c7ccc(O)cc7CCC6c6ccccc6)cc3)CC5)CC2)CO4)C(=O)N1 (centres unmarked) [A18] |  |  |  | 20% |  | 14% | 170 nM | 68 nM
O=C1CCC(N2Cc3c(ccc4c3OCC43CCN(C(=O)C4CCC(N5CCC(C#Cc6ccc([C@@H]7c8ccc(O)cc8CC[C@@H]7c7ccccc7)cc6)CC5)CC4)CC3)C2=O)C(=O)N1 (some centres unmarked) [A101] | 850 nM | 0.91 nM | 52% | 61% | 44% | 45% |  | 
O=C1CCC(N2Cc3cc4c(cc3C2=O)OC2(CC4)CN(C(=O)C3CCC4(CC3)CN(c3ccc([C@@H]5c6ccc(O)cc6CC[C@@H]5c5ccccc5)cc3)C4)C2)C(=O)N1 (some centres unmarked) [A47] | 871 nM | 11.7 nM | 9% | 14% | -10% | 37% |  | 
O=C1CCC(N2C(=O)c3cc4c(cc3C2=O)OC2(CC4)CN(C3CCC4(CC3)CN(c3ccc(C5c6ccc(O)cc6CCC5c5ccccc5)cc3)C4)C2)C(=O)N1 (centres unmarked) [B7] | > 100 nM |  |  | -6% |  | 19% |  | 1000 nM
O=C1CCC(N2C(=O)c3cc4c(cc3C2=O)OC2(CC4)CN(CC3CC4(CCN(c5ccc([C@@H]6c7ccc(O)cc7CC[C@@H]6c6ccccc6)cc5)CC4)C3)C2)C(=O)N1 (some centres unmarked) [B11] | 4610 nM | 55 nM | -40% | -16% | -34% | -38% |  | 
O=C1CCC(N2Cc3c(ccc4c3OCC43CCN(CC4CCN(CC5CCN(c6ccc([C@@H]7c8ccc(O)cc8CC[C@@H]7c7ccccc7)cc6)CC5)CC4)CC3)C2=O)C(=O)N1 (some centres unmarked) [A102] | 107 nM | 20.2 nM | 36% | 73% | 16% | 51% |  | 
C[C@@H]1Cc2c(ccc3[nH]ncc23)C(c2ccc(N3CC4(CCC(N5CCC6(CC5)COc5c6ccc6c5CN(C5CCC(=O)NC5=O)C6=O)CC4)C3)cn2)N1CC(F)(F)F (some centres unmarked) [B49] | 7150 nM | 316 nM | 24% | 43% | 42% | 68% |  | 
O=C1CCC(N2Cc3c(ccc4c3OCC43CCN(C(=O)C4CCC(CN5CCC(C#Cc6ccc(C7c8ccc(O)cc8CCC7c7ccccc7)cc6)CC5)CC4)CC3)C2=O)C(=O)N1 (centres unmarked) [C6] | 92.5 nM | 2.93 nM | 27% | 42% | 38% | 49% |  | 
C[C@H]1CN(C(=O)C2(F)CCN(c3ccc([C@@H]4c5ccc(O)cc5CC[C@@H]4c4ccccc4)cc3)CC2)CCC1N1CCC2(CC1)COc1c2ccc2c1CN(C1CCC(=O)NC1=O)C2=O (some centres unmarked) [A97] | 217 nM | 2.33 nM | 50% | 75% | 45% | 78% |  | 
CC1(CN2CCC3(CC2)COc2c3ccc3c2CN(C2CCC(=O)NC2=O)C3=O)CCN(CC2CCN(c3ccc([C@@H]4c5ccc(O)cc5CC[C@@H]4c4ccccc4)cc3)CC2)CC1 (some centres unmarked) [B37] | 2800 nM | 8.54 nM | 11% | 41% | 12% | 36% |  | 
CCN(C1CCN(c2ccc([C@@H]3c4ccc(O)cc4CC[C@@H]3c3ccccc3)cc2)CC1)[C@H]1CC[C@@H](C(=O)N2CCC3(CC2)COc2c3ccc3c2CN(C2CCC(=O)NC2=O)C3=O)CC1 (some centres unmarked) [B43] | 232 nM | 4.04 nM | 54% | 62% | 57% | 80% |  | 
CC1(CN2CCC3(CC2)COc2c3ccc3c2CN(C2CCC(=O)NC2=O)C3=O)CCN(C(=O)C2CCN(c3ccc([C@@H]4c5ccc(O)cc5CC[C@@H]4c4ccccc4)cc3)CC2)CC1 (some centres unmarked) [A109] | 42.8 nM | 2.93 nM | 10% | 54% | 31% | 75% |  | 

Other lines, results leading:

IC50 (MCF-7 cells; [3]) | IC50 (T-47D cells; Table 3) | Degradation rate (%) of ERα in MCF-7 cells (ERα [1]; 1nM compound) | Degradation rate (%) of ERα in MCF-7 cells (ERα [1]; 10nM compound) | Degradation rate (%) of ERα in T-47D cells (ERα [2]; 1nM compound) | Degradation rate (%) of ERα in T-47D cells (ERα [2]; 10nM compound) | IC50 (MCF-7 cells; 9 days of treatment, CCK-8, Table 5) | IC50 (T-47D cells; Table 2) | Compound
7380 nM | 1.55 nM | 18% | 58% | 69% | 57% |  |  | O=C1CCC(N2Cc3c(ccc4c3OCC43CCN(CC(=O)N4CCN(c5ccc([C@@H]6c7ccc(O)cc7CC[C@@H]6c6ccccc6)cc5)CC4)CC3)C2=O)C(=O)N1 (some centres unmarked) [H18]
132 nM | 1.61 nM | 30% | 58% | 73% | 85% |  |  | O=C1CCC(N2Cc3c(ccc4c3OCC43CCN(CC(=O)N4CC5(CCN(c6ccc([C@@H]7c8ccc(O)cc8CC[C@@H]7c7ccccc7)cc6)CC5)C4)CC3)C2=O)C(=O)N1 (some centres unmarked) [K5]
828 nM | 6.52 nM | 10% | 18% | -11% | 30% |  |  | O=C1CCC(N2Cc3ccc4c(c3C2=O)OCC42CCN(C3CC4(CCN(c5ccc([C@@H]6c7ccc(O)cc7CC[C@@H]6c6ccccc6)cc5)CC4)C3)CC2)C(=O)N1 (some centres unmarked) [L26]
31.8 nM | 2.58 nM | 49% | 71% | 34% | 75% |  |  | CNC(=O)[C@@H]1CC(N2CCC3(CC2)COc2c3ccc3c2CN(C2CCC(=O)NC2=O)C3=O)CCN1C1CC2(CCN(c3ccc([C@@H]4c5ccc(O)cc5CC[C@@H]4c4ccccc4)cc3)CC2)C1 (some centres unmarked) [H38]
4020 nM | 1.44 nM | 35% | 58% | 52% | 77% |  |  | COC(=O)[C@@H]1C[C@H](N2CCC3(CC2)COc2c3ccc3c2CN(C2CCC(=O)NC2=O)C3=O)CCN1C1CCN(c2ccc([C@@H]3c4ccc(O)cc4CC[C@@H]3c3ccccc3)cc2)CC1 (some centres unmarked) [H32]
9.28 nM | 1.32 nM | 49% | 77% | 37% | 73% |  |  | O=C1CCC(N2Cc3c(ccc4c3OCC43CCN(C4CCN(C(=O)C5CCN(c6ccc([C@@H]7c8ccc(O)cc8CC[C@@H]7c7ccccc7)cc6)CC5)CC4F)CC3)C2=O)C(=O)N1 (some centres unmarked) [H42]
5.05 nM | 1.88 nM | 63% | 80% | 59% | 83% |  |  | O=C1CCC(N2Cc3c(ccc4c3OCC43CCN(C4CCN(C5CC6(CCN(c7ccc([C@@H]8c9ccc(O)cc9CC[C@@H]8c8ccccc8)cc7)CC6)C5)[C@H](C(=O)NC5CC5)C4)CC3)C2=O)C(=O)N1 (some centres unmarked) [H41]
9560 nM | 3.59 nM | 32% | 71% | 11% | 63% |  |  | CN(C(=O)CN1CCC2(CC1)COc1c2ccc2c1CN(C1CCC(=O)NC1=O)C2=O)C1CCC2(CC1)CCN(c1ccc([C@@H]3c4ccc(O)cc4CC[C@@H]3c3ccccc3)cc1)CC2 (some centres unmarked) [H50]
